Legend:
[1] = system: L-1210 leukemia cells; assay: Enhancement of carcinostatic activity of Arabinofuranocylcytocine to L-1210 leukemia cells (Table 6); assay type: in vivo, mouse (BDF1-strain); conditions: 1×10^3 cells; Ara-C 30 mg/kg × 5 i.p., B-TL 1/10 none or 0.25 ml × 7 s.c.
Protocol: (3) L-1210 leukemia cells were inoculated intraperitoneally into BDF1 -strain mice (male, 6 to 7 weeks old) in an amount of 1×10^3 cells per mouse, and B-TL 1/10 was administered subcutaneously at the back at a dose of 0.25 ml per mouse once a day repeatedly from the day of inoculation for 7 days in total. Arabinofuranocylcytocine (Ara-C) was administered intraperitoneally at a dose of 30 mg/kg once a day from the day following the inoculation of the cancerous cells for 5 days in total.

[2] = system: Ehrlich's ascites cancerous cells; assay: Enhancement of carcinostatic activity of Carboquan or Adriamycin to Ehrlich's ascites cancer cells (Table 10); assay type: in vivo, mouse (ICR-strain); conditions: 1×10^5 cells, B-TL 1/10 none or 0.25 ml × 7 s.c.
Protocol: (2) Ehrlich's ascites cancerous cells were inoculated intraperitoneally into ICR-strain mice male, 6 weeks old) in an amount of 1×10^5 cells per mouse. B-TL 1/10 was administered subcutaneously at the back at a dose of 0.25 ml per mouse once a day repeatedly from the day of inoculation for 7 days in total. On the day following the inoculation of the cancerous cells, 0.25 mg/kg of Carboquan (CQ) or 5 mg/kg of Adriamycin (AM) was administered intraperitoneally.

[3] = system: Escherichia coli TK-16; assay: Infection-controlling effect at a low immunity (cyclophosphamide-treated mice, Table 16); assay type: in vivo, Escherichia coli; ICR-strain mice; conditions: for Number of survivors: 15 mice, cyclophosphamide 100 mg/kg, 7th day
Protocol: Cyclophosphamide was administered intraperitoneally into a group of fifteen ICR-strain mice (male, 4 weeks old) at a dose of 100 mg/kg. On the next day, B-TL 1/10 was administered subcutaneously at the back at a dose of 0.25 ml per mouse once a day repeatedly for 4 days, and a physiological salt solution was administered to the contorl group in the same manner as described above. On the day following the administration of B-TL 1/10, Escherichia coli TK-16 was administered intraperitoneally, and the numbers of the survivors on the 7th day after the inoculation of the bacteria were observed.

[4] = system: Escherichia coli TK-16; assay: Antibacterial activity-enhancing effect with Piperacillin in Escherichia coli infection (Table 17); assay type: in vivo, Escherichia coli; ICR-strain mice; conditions: for Number of survivors: 2×10^7 cells/mouse, 5 mice, 7th day
Protocol: Escherichia coli TK-16 was administered intraperitoneally into a group of five ICR-strain mice (male, 4 weeks old) in an amount of 2×10^7 cells/mouse, and after one hour, Piperacillin was administered once subcutaneously at the back. B-TL 1/5 was administered subcutaneously at the back at a dose of 0.25 ml per mouse once a day on the 7th, 6th and 5th days before the inoculation of the bacteria, and B-TL 1/10 at a dose of 0.25 ml per mouse once a day on the second and first days before the inoculation of the bacteria. A physiological salt solution was administered to the control group in the same manner as above, and the numbers of the survivors on the 7th day after the inoculation of the bacteria were observed.

[5] = system: B-16 melanoma cancerous cells; assay: Enhancement of carcinostatic activity of Adriamycin to B-16 melanoma cancerous cells (Table 12); assay type: in vivo, mouse (BDF1-strain); conditions: 0.2 g cells i.p.; AM 2 mg/kg i.p., B-TL 1/10 none or 0.25 ml × 7 s.c.
Protocol: Fifteen grams of B-16 melanoma cell cluster was milled by means of a mesh, and then suspended in 15 ml of a physiological salt solution, after which the resulting suspension was transplanted intraperitoneally in BDF1 -strain mice (male, 6 weeks old) in an amount of 0.2 ml per mouse (i.e., 0.2 g of the cells were transplanted per mouse). B-TL 1/10 was administered subcutaneously at the back at a dose of 0.25 ml per mouse once a day for 7 days from the day of transplantation. Adriamycin (AM) was administered intraperitoneally once at a dose of 2 mg/kg on the day following the day of cancer transplantation.

[6] = system: L-1210 leukemia cells; assay: Enhancement of carcinostatic activity of Mitomycin C to L-1210 leukemia cells (Table 4); assay type: in vivo, mouse (BDF1-strain); conditions: for Number of survivors/Number of tested mice (on the 38th day) / T/C (%): MMC 4 mg/kg i.p., B-TL 1/10 none or 0.25 ml × 7 s.c.
Protocol: (§1) (1) L-1210 leukemia cells were inoculated intraperitoneally into BDF1 -strain mice (male, 6 to 7 weeks old) in an amount of 1×10^3, 1×10^4 or 1×10^5 cells per mouse, B-TL 1/10 was administered subcutaneously at the back at a dose of 0.25 ml per mouse once a day repeatedly from the day of inoculation for 7 days in total. Mitomycin C (MMC) was administered intraperitoneally at a dose of 4 mg/kg on the first day after the inoculation of the cancerous cells.

[7] = system: L-1210 leukemia cells; assay: Enhancement of carcinostatic activity of Mitomycin C to L-1210 leukemia cells, divided B-TL 1/10 dosing (Table 5); assay type: in vivo, mouse (BDF1-strain); conditions: MMC 4 mg/kg
Protocol: as §1
(2) In the same manner as in (1), L-1210 leukemia cells were inoculated and MMC and the B-T were administered. B-TL 1/10 was administered subcutaneously at the back, […], and once on the third, 4th, 5th and 6th days after the inoculation.

[8] = system: L-1210 leukemia cells; assay: Enhancement of carcinostatic activity of Mitomycin C to subcutaneous L-1210 tuberous tumor (Table 7); assay type: in vivo, mouse (BDF1-strain)
Protocol: (4) L-1210 leukemia cells were inoculated subcutaneously at the armpit of BDF1 -strain mice (male, 7 weeks old) in an amount of 1×10^6 cells per mouse to form a tuberous tumor. B-TL 1/10 was administered subcutaneously at the back at a dose of 0.25 ml per mouse once a day repeatedly from the first day after the inoculation of the cancerous cells for 7 days in total, and Mitomycin C was administered into the tumor at a dose of 4 mg/kg on the first day after the inoculation of the cancerous cells.

[9] = system: P-388 leukemia cells; assay: Enhancement of carcinostatic activity of Mitomycin C to P-388 leukemia cells (Table 8); assay type: in vivo, mouse (BDF1-strain); conditions: 1×10^3 cells; MMC 0.5 mg/kg i.p., B-TL 1/10 none or 0.25 ml × 7 s.c.
Protocol: P-388 leukemia cells were inoculated intraperitoneally into BDF1 -strain mice (male, 7 weeks old) in an amount of 1×10^3 cells per mouse, and B-TL 1/10 was administered subcutaneously at the back at a dose of 0.25 ml per mouse on the day of inoculation and thereafter administered subcutaneously at the back at the same dose once a day repeatedly for 7 days. Mitomycin C (MMC) was administered intraperitoneally at a dose of 0.5 mg/kg on the first day after the inoculation of the P-388 leukemia cells.

[10] = system: Ehrlich's ascites cancer cells; assay: Enhancement of carcinostatic activity of Mitomycin C to Ehrlich's ascites cancer cells (Table 9); assay type: in vivo, mouse (ICR-strain); conditions: 1×10^5 cells; MMC 0.5 mg/kg i.p.
Protocol: (1) Ehrlich's ascites cancer cells were inoculated intraperitoneally into ICR-strain mice (female, 6 weeks old) in an amount of 1×10^5 cells per mouse, and B-TL 1/10 was administered subcutaneously at the back at a dose of 0.25 ml per mouse once a day repeatedly from the third day after the inoculation of the cancerous cells for 7 days in total. Mitomycin C (MMC) was administered intraperitoneally at a dose of 0.5 mg/kg on the first day after the inoculation of the cancerous cells.

[11] = system: Ehrlich's ascites cancerous cells; assay: Enhancement of carcinostatic activity of Mitomycin C to Ehrlich's ascites cancer cells, B-TL 1/10 pretreatment (Table 11); assay type: in vivo, mouse (ICR-strain); conditions: 1×10^5 cells, B-TL 1/10 none or 0.25 ml × 8 s.c.
Protocol: (3) B-TL 1/10 was administered subcutaneously at the back of ICR-strain mice (male, 5 weeks old) at a dose of 0.25 ml per mouse once a day repeatedly for 8 days in total, and on the day following the eighth administration, 1×10^5 Ehrlich's ascites cancerous cells were inoculated intraperitoneally. On the day following the inoculation of the cancerous cells, Mitomycin C (MMC) was administered intraperitoneally at a dose of 0.5 mg/kg or 1 mg/kg.

[12] = 1×10^6 cells s.c., MMC 4 mg/kg into the tumor, B-TL 1/10 none or 0.25 ml × 7 s.c.

With `Nc1ccn([C@@H]2O[C@H](CO)[C@@H](O)[C@@H]2O)c(=O)n1` [Ara-C, Arabinofuranocylcytocine] the “Number of survivors/Number of tested mice (on the 30th day)” value [1] was 0/4 and the “T/C (%)” value [1] was 152%.
With `COC(COC(N)=O)C1=C(N2CC2)C(=O)C(C)=C(N2CC2)C1=O` (racemic) [CQ, Carboquan] the “Number of survivors/Number of tested mice (on the 40th day)” value ([2]; CQ 0.25 mg/kg i.p.) was 0/4 and the “T/C (%)” value ([2]; CQ 0.25 mg/kg i.p.) was 138%.
`O=P1(N(CCCl)CCCl)NCCCO1` (centres unmarked) [cyclophosphamide, Cyclophosphamide] was tested, and the Number of survivors ([3]; 1.0 × 10^6 cells/mouse) was 3, the Number of survivors ([3]; 2.0 × 10^5 cells/mouse) was 10 and the Number of survivors ([3]; 3.0 × 10^5 cells/mouse) was 10. The Number of survivors ([3]; 4.0 × 10^5 cells/mouse) was 6, the Number of survivors ([3]; 8.0 × 10^5 cells/mouse) was 4 and the “LD50 versus control (in words)” value ([3]; Table 16) was “significantly lower”. The “LD50 (of bacteria)” value ([3]; cyclophosphamide 100 mg/kg i.p., without or with B-TL 1/10 0.25 ml s.c. × 4 days) was 2.7 × 10^5 cells/mouse and the “infection-controlling effect (in words)” value ([3]; mice given cyclophosphamide) was “the inhibition of the infection-controlling effect was confirmed”.
`CCN1CCN(C(=O)N[C@@H](C(=O)N[C@@H]2C(=O)N3[C@@H]2SC(C)(C)[C@@H]3C(=O)O)c2ccccc2)C(=O)C1=O` [Piperacillin] showed a Number of survivors ([4]; Piperacillin 0.156 mg/mouse s.c.) of 0, a Number of survivors ([4]; Piperacillin 0.313 mg/mouse s.c.) of 0 and a Number of survivors ([4]; Piperacillin 0.625 mg/mouse s.c.) of 1. For the same compound, the Number of survivors ([4]; Piperacillin 1.25 mg/mouse s.c.) was 0, the Number of survivors ([4]; Piperacillin 2.5 mg/mouse s.c.) was 2 and the ED50 ([4]; Piperacillin dose, without or with B-TL 1/5 then B-TL 1/10 pretreatment) was 3.54 mg/mouse.
For `COc1cccc2c1C(=O)c1c(O)c3c(c(O)c1C2=O)C[C@@](O)(C(=O)CO)C[C@@H]3O[C@H]1C[C@H](N)[C@H](O)[C@H](C)O1` [AM, Adriamycin], the “Number of survivors/Number of tested mice (on the 40th day)” value ([2]; AM 5 mg/kg i.p.) was 2/4, the “T/C (%)” value ([2]; AM 5 mg/kg i.p.) was 175% and the “Number of survivors/Number of tested mice (on the 35th day)” value [5] was 1/4. For the same compound, the “T/C (%)” value [5] was 182%.
`CO[C@@]12[C@H](COC(N)=O)C3=C(C(=O)C(C)=C(N)C3=O)N1C[C@@H]1N[C@@H]12` [MMC, Mitomycin C] was tested, and the “Number of survivors/Number of tested mice (on the 38th day)” value ([6]; 1 × 10^3 cells/mouse) was 4/13, the “T/C (%)” value ([6]; 1 × 10^3 cells/mouse) was 192% and the “life-prolonging effect (in words)” value ([6]; 1×10^3 cells, same tendency at 1×10^4 and 1×10^5) was “a life-prolonging effect was observed”. The “Number of survivors/Number of tested mice (on the 38th day)” value ([6]; 1 × 10^4 cells/mouse) was 2/9, the “T/C (%)” value ([6]; 1 × 10^4 cells/mouse) was 188% and the “Number of survivors/Number of tested mice (on the 38th day)” value ([6]; 1 × 10^5 cells/mouse) was 0/4. The “T/C (%)” value ([6]; 1 × 10^5 cells/mouse) was 136%, the “Number of survivors/Number of tested mice (on the 40th day)” value ([7]; 1 × 10^3 cells/mouse) was 1/4 and the “T/C (%)” value ([7]; 1 × 10^3 cells/mouse) was 187%. The “Number of survivors/Number of tested mice (on the 40th day)” value ([7]; 1 × 10^4 cells/mouse) was 1/4, the “T/C (%)” value ([7]; 1 × 10^4 cells/mouse) was 202% and the “Number of survivors/Number of tested mice (on the 40th day)” value ([7]; 1 × 10^5 cells/mouse) was 0/4. For the same compound, the “T/C (%)” value ([7]; 1 × 10^5 cells/mouse) was 136%, the “Number of survivors/Number of tested mice (on the 30th day)” value [8, 12] was 4/5 and the “T/C (%)” value [8, 12] was 304%. The “Weight of tumor, Ratio to Control” value ([8]; 30th day versus control measured on 8-10th day (control = 100)) was 156, the Weight of tumor ([8]; on the 30th day, 4 survivors among 5, MMC 4 mg/kg, B-TL 1/10 none or 0.25 ml × 7) was 808 ± 461 mg and the “Number of survivors/Number of tested mice (on the 41st day)” value [9] was 0/3. The “T/C (%)” value [9] was 101%, the “Number of survivors/Number of tested mice (on the 40th day)” value [10] was 1/10 and the “T/C (%)” value [10] was 158%. For the same compound, the “Number of survivors/Number of tested mice (on the 40th day)” value ([11]; MMC 0.5 mg/kg i.p.) was 1/5, the “T/C (%)” value ([11]; MMC 0.5 mg/kg i.p.) was 157% and the “Number of survivors/Number of tested mice (on the 40th day)” value ([11]; MMC 1 mg/kg i.p.) was 0/5. The “T/C (%)” value ([11]; MMC 1 mg/kg i.p.) was 172%.

— patent publication US4444753A, “Pharmaceutical composition comprising extract from poison pouch contents of bee” (priority 1979, dated 1984)
